How the values were obtained:
[1] = target: Receptor-type tyrosine-protein kinase FLT3 (Homo sapiens) (UniProt P36888); experiment: Selectivity interaction (KinomeScan (DiscoverX)) EUB0000229b FLT3; details: at 10 µM
[2] = system: Phosphatidylinositol 4,5-bisphosphate 3-kinase catalytic subunit alpha isoform (Homo sapiens), P42336 [H1047L]; experiment: (§1) Selectivity interaction (KinomeScan (DiscoverX)) EUB0001079a PIK3CA; details: at 1 µM
[3] = system: Phosphatidylinositol 4,5-bisphosphate 3-kinase catalytic subunit alpha isoform (Homo sapiens), P42336 [E542K]; experiment: as §1; details: at 1 µM
[4] = system: Phosphatidylinositol 4,5-bisphosphate 3-kinase catalytic subunit alpha isoform (Homo sapiens), P42336 [E545K]; experiment: as §1; details: at 1 µM
[5] = target: Phosphatidylinositol 4,5-bisphosphate 3-kinase catalytic subunit alpha isoform (Homo sapiens) (UniProt P42336); experiment: as §1; details: at 1 µM
[6] = system: Phosphatidylinositol 4,5-bisphosphate 3-kinase catalytic subunit alpha isoform (Homo sapiens), P42336 [M1043I]; experiment: as §1; details: at 1 µM
[7] = system: Phosphatidylinositol 4,5-bisphosphate 3-kinase catalytic subunit alpha isoform (Homo sapiens), P42336 [I800L]; experiment: as §1; details: at 1 µM
[8] = system: Phosphatidylinositol 4,5-bisphosphate 3-kinase catalytic subunit alpha isoform (Homo sapiens), P42336 [H1047Y]; experiment: as §1; details: at 1 µM
[9] = system: Phosphatidylinositol 4,5-bisphosphate 3-kinase catalytic subunit alpha isoform (Homo sapiens), P42336 [E545A]; experiment: as §1; details: at 1 µM
[10] = system: Phosphatidylinositol 4,5-bisphosphate 3-kinase catalytic subunit alpha isoform (Homo sapiens), P42336 [C420R]; experiment: as §1; details: at 1 µM
[11] = system: Phosphatidylinositol 4,5-bisphosphate 3-kinase catalytic subunit alpha isoform (Homo sapiens), P42336 [Q546K]; experiment: as §1; details: at 1 µM
[12] = target: T1, Dual specificity tyrosine-phosphorylation-regulated kinase 2 (Homo sapiens) (UniProt Q92630); experiment: Selectivity interaction (KinomeScan (DiscoverX)) EUB0000666a DYRK2; details: at 10 µM
T1 sequence (whole entry): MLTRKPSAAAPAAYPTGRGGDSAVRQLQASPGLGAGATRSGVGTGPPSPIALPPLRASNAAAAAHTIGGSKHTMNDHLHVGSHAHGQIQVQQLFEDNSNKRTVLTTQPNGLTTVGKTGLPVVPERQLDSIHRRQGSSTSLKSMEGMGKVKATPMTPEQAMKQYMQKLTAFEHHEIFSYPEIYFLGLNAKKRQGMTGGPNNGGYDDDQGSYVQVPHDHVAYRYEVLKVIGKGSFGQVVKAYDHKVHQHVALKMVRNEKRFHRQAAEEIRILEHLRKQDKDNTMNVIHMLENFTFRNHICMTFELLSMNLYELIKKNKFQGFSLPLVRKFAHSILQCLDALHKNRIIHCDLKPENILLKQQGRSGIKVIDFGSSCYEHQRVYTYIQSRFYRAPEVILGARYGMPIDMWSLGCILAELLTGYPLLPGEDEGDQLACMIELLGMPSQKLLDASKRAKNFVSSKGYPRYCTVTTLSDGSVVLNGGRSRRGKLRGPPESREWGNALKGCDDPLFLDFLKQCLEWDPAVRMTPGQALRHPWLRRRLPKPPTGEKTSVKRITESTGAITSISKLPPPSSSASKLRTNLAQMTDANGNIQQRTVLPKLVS

[13] = target: Phosphatidylinositol 4,5-bisphosphate 3-kinase catalytic subunit gamma isoform (Homo sapiens) (UniProt P48736); experiment: Selectivity interaction (Panel of kinases, GPCRs, ion channels and transporters (enzymatic assay)) EUB0000223bCl PIK3CG
[14] = target: T2, Hormonally up-regulated neu tumor-associated kinase (Homo sapiens) (UniProt P57058); experiment: Selectivity interaction (KinomeScan (DiscoverX)) EUB0001619a HUNK; details: at 1 µM
T2 sequence (whole entry): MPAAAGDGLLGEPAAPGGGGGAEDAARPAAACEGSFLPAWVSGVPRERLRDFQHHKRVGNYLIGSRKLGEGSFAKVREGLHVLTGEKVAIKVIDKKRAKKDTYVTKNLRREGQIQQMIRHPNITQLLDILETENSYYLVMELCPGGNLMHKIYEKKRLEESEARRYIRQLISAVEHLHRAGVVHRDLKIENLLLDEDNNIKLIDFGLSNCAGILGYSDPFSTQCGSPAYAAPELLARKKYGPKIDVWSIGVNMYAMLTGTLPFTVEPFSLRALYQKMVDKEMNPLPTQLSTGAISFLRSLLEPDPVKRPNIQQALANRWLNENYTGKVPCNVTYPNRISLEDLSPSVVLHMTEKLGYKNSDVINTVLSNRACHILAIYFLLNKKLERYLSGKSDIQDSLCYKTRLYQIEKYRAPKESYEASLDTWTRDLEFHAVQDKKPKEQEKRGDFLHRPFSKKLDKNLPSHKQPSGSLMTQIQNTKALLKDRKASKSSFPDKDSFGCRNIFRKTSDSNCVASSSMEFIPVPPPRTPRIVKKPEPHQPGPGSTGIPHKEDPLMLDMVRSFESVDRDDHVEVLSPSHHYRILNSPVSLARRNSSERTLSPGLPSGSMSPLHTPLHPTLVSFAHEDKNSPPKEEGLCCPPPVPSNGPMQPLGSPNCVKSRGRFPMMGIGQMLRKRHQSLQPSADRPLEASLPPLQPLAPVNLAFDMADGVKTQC

[15] = target: Phosphatidylinositol 4-kinase alpha (Homo sapiens, UniProt P42356); experiment: Selectivity interaction (Kinase panel (Invitrogen)) EUB0000639a PI4KA; details: at 200 nM
[16] = target: Serine/threonine-protein kinase 16 (Homo sapiens, UniProt O75716); experiment: Selectivity interaction (KinomeScan (DiscoverX)) EUB0000655a STK16; details: at 10 µM
Sequence of Serine/threonine-protein kinase 16 (O75716 whole entry): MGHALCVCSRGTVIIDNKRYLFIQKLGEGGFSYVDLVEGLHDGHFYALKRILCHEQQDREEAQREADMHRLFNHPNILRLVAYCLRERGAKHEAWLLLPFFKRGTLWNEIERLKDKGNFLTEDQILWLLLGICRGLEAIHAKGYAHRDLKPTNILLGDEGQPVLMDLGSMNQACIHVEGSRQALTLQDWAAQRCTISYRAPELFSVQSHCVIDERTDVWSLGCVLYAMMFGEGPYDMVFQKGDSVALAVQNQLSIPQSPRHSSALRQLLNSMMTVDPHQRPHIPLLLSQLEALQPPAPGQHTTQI

Sequence of Phosphatidylinositol 4,5-bisphosphate 3-kinase catalytic subunit alpha isoform (Homo sapiens), P42336 [E545K] (P42336 whole entry E545K, canonical isoform): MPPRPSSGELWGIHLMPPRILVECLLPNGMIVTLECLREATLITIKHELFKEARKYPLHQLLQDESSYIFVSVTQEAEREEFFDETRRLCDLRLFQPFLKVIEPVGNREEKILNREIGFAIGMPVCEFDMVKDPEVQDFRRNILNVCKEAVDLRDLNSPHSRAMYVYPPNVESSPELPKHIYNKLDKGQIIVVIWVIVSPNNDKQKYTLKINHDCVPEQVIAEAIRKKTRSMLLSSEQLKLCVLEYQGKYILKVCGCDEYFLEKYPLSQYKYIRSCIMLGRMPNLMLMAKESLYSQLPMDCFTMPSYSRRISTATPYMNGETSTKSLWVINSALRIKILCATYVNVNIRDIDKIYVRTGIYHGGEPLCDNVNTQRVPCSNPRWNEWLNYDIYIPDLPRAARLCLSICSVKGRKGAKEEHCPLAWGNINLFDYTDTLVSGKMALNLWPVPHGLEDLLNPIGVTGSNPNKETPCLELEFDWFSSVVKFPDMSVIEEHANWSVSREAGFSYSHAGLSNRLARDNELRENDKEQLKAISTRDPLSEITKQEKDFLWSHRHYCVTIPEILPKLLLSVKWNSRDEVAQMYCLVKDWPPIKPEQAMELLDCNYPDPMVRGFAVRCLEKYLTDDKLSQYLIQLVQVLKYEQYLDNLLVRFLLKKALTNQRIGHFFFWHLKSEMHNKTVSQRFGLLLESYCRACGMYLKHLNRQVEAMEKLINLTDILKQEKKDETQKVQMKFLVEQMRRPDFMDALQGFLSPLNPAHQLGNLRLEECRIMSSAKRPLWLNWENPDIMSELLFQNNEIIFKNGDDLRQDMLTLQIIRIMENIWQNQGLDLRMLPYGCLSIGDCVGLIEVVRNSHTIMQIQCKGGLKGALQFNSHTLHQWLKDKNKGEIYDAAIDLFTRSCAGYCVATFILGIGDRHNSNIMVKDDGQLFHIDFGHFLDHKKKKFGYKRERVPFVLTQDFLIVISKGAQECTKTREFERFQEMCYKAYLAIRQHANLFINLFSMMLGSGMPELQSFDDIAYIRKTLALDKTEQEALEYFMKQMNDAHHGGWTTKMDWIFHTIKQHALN
Sequence of Phosphatidylinositol 4,5-bisphosphate 3-kinase catalytic subunit alpha isoform (Homo sapiens), P42336 [H1047L] (P42336 whole entry H1047L, canonical isoform): as the sequence (P42336 whole entry E545K, canonical isoform) above, with K545E, H1047L counted along it
Sequence of Phosphatidylinositol 4,5-bisphosphate 3-kinase catalytic subunit alpha isoform (Homo sapiens), P42336 [E545A] (P42336 whole entry E545A, canonical isoform): as the sequence (P42336 whole entry E545K, canonical isoform) above, with K545A counted along it
Sequence of Phosphatidylinositol 4,5-bisphosphate 3-kinase catalytic subunit alpha isoform (Homo sapiens), P42336 [H1047Y] (P42336 whole entry H1047Y, canonical isoform): as the sequence (P42336 whole entry E545K, canonical isoform) above, with K545E, H1047Y counted along it

Compound: COc1cc(N(C)c2ccnc3ccc(C(F)(F)F)cc23)cc(OC)c1OC
- % binding [1]: 78%

Compound: Nc1cnc(N2CCc3cc(S(=O)(=O)Nc4c(F)cc(Cl)cc4F)cc(N4CCCC4=O)c32)nc1 [TP-020n]
- % of control [2]: 60%
- % of control [3]: 72%
- % of control [4]: 100%
- % of control [5]: 76%
- % of control [6]: 100%
- % of control [7]: 80%
- % of control [8]: 100%
- % of control [9]: 100%
- % of control [10]: 84%
- % of control [11]: 78%

Compound: O=C(NOC[C@H](O)CO)c1ccc(F)c(F)c1Nc1ccc(I)cc1F
- % of control [12]: 95%

Compound: COc1cc(C(=O)N2CC[C@@H](O)[C@@H](N)C2)cc2nc(-c3cc4ccccc4n3CC3CC3)n(C)c12
- pXC50 [13]: < 4.5 M

Compound: N#Cc1cccc(-c2c[nH]c3ncnc(N4CCOCC4)c23)c1
- % of control [14]: 100%

Compound: CC[C@@H]1[C@H](F)C(=O)N[C@@H]1COc1nccc2cc(C(N)=O)c(OC)cc12 [ZIMLOVISERTIB]
- % of inhibition [15]: -0.209%

Compound: CN(C)CCOc1ccc(-c2nc(-c3ccncc3)c(-c3ccc4c(c3)CC/C4=N\O)[nH]2)cc1
- % of control [16]: 94%
